Laboratory results: BindingDB's records for doi:10.1021/acs.jmedchem.5b00570 (Academy of Sciences of The Czech Republic V.V.I., 2015)

Columns and labels:
[1] = target: Glutamate receptor ionotropic, NMDA 1/2A (Homo sapiens, UniProt Q12879+Q05586); assay: Inhibition of recombinant GluN1/GluN2A receptor (unknown origin) expressed in HEK293 cells assessed as inhibition of glutamate-evoked current by whole-cell voltage-clamp method
[2] = target: Glutamate receptor ionotropic, NMDA 1/2D (Homo sapiens, UniProt Q05586+O15399); assay: Inhibition of recombinant GluN1/GluN2D receptor (unknown origin) expressed in HEK293 cells assessed as inhibition of glutamate-evoked current by whole-cell voltage-clamp method
[3] = target: Glutamate receptor ionotropic, NMDA 1/2C (Homo sapiens, UniProt Q05586+Q14957); assay: Inhibition of recombinant GluN1/GluN2C receptor (unknown origin) expressed in HEK293 cells assessed as inhibition of glutamate-evoked current by whole-cell voltage-clamp method
[4] = target: Glutamate receptor ionotropic, NMDA 1/2B (Homo sapiens, UniProt Q05586+Q13224); assay: Inhibition of recombinant GluN1/GluN2B receptor (unknown origin) expressed in HEK293 cells assessed as inhibition of glutamate-evoked current by whole-cell voltage-clamp method
Chain of Glutamate receptor ionotropic, NMDA 1/2B (Q13224 whole entry, other chains not shown): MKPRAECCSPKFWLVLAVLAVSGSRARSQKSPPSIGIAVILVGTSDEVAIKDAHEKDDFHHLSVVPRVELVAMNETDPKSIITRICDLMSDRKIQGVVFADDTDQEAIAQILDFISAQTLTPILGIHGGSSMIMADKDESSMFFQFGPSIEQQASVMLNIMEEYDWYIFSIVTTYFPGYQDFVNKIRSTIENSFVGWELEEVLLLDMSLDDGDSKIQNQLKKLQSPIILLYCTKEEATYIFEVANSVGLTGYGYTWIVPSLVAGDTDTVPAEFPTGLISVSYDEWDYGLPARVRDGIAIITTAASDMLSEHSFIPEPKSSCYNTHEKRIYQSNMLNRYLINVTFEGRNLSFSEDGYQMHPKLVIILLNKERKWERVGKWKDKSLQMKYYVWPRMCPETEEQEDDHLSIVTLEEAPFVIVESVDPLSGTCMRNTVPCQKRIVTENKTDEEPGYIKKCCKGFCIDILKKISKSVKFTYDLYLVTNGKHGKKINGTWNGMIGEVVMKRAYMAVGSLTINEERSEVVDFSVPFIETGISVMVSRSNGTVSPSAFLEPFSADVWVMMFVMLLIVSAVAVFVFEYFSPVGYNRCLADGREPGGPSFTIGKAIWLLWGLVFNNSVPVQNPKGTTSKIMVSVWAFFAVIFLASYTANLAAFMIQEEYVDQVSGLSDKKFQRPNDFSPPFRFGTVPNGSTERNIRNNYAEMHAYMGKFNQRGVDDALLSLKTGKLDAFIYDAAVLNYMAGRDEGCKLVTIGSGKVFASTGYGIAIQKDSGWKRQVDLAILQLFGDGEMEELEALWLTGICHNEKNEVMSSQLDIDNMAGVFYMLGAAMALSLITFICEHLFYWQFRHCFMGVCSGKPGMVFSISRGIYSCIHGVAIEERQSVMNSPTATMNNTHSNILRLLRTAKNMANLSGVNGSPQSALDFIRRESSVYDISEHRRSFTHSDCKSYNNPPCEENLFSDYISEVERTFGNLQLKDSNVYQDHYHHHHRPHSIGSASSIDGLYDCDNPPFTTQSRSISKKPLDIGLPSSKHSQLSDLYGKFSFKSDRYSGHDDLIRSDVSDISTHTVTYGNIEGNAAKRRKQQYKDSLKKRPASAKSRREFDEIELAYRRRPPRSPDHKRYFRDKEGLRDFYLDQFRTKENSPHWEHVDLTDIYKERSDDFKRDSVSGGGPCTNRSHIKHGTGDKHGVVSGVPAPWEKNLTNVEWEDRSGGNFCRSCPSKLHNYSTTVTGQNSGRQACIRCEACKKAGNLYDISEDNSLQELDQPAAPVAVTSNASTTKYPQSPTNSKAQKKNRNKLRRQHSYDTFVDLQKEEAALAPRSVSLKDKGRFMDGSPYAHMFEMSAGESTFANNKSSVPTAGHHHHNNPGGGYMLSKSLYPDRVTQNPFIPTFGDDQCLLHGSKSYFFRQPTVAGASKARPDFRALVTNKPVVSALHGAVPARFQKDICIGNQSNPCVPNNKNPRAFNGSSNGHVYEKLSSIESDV

Chain of Glutamate receptor ionotropic, NMDA 1/2A (Q12879 whole entry, other chains not shown): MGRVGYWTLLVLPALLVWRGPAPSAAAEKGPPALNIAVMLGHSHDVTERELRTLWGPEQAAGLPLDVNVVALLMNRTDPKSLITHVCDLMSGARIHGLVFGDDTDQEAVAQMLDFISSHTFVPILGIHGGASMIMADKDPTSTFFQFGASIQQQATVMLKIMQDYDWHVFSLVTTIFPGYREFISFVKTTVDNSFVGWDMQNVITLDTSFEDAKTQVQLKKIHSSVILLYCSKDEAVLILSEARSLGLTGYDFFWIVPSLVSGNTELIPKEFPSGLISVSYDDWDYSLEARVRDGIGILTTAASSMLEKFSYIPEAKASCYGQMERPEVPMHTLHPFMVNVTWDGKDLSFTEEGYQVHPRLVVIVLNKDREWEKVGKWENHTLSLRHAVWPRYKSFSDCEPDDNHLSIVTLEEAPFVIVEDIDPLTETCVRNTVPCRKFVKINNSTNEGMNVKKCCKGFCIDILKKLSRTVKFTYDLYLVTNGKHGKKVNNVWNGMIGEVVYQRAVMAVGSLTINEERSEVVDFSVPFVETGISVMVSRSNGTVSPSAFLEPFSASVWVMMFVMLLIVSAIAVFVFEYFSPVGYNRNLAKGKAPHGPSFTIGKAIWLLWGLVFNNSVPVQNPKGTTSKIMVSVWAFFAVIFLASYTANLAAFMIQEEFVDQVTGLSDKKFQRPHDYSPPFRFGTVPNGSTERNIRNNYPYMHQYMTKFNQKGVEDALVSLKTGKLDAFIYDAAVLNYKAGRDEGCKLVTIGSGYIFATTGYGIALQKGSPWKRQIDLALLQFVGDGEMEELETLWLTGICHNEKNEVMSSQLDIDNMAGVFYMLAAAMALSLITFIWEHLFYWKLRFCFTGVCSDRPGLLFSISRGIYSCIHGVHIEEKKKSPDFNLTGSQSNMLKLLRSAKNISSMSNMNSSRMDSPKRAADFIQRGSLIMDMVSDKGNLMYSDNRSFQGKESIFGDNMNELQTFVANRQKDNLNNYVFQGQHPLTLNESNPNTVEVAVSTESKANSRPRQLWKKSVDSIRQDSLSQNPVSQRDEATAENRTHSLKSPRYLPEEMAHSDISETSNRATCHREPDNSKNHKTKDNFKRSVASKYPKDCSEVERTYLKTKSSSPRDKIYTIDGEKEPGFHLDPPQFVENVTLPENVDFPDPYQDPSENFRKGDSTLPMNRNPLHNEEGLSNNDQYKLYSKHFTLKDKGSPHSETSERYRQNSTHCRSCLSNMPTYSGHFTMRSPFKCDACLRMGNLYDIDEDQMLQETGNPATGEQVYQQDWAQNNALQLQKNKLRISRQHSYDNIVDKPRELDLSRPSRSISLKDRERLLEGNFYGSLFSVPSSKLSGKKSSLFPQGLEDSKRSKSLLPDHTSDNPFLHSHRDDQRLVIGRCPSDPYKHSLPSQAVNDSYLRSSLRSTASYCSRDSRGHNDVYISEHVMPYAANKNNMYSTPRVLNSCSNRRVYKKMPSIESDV
Chain of Glutamate receptor ionotropic, NMDA 1/2D (O15399 whole entry, other chains not shown): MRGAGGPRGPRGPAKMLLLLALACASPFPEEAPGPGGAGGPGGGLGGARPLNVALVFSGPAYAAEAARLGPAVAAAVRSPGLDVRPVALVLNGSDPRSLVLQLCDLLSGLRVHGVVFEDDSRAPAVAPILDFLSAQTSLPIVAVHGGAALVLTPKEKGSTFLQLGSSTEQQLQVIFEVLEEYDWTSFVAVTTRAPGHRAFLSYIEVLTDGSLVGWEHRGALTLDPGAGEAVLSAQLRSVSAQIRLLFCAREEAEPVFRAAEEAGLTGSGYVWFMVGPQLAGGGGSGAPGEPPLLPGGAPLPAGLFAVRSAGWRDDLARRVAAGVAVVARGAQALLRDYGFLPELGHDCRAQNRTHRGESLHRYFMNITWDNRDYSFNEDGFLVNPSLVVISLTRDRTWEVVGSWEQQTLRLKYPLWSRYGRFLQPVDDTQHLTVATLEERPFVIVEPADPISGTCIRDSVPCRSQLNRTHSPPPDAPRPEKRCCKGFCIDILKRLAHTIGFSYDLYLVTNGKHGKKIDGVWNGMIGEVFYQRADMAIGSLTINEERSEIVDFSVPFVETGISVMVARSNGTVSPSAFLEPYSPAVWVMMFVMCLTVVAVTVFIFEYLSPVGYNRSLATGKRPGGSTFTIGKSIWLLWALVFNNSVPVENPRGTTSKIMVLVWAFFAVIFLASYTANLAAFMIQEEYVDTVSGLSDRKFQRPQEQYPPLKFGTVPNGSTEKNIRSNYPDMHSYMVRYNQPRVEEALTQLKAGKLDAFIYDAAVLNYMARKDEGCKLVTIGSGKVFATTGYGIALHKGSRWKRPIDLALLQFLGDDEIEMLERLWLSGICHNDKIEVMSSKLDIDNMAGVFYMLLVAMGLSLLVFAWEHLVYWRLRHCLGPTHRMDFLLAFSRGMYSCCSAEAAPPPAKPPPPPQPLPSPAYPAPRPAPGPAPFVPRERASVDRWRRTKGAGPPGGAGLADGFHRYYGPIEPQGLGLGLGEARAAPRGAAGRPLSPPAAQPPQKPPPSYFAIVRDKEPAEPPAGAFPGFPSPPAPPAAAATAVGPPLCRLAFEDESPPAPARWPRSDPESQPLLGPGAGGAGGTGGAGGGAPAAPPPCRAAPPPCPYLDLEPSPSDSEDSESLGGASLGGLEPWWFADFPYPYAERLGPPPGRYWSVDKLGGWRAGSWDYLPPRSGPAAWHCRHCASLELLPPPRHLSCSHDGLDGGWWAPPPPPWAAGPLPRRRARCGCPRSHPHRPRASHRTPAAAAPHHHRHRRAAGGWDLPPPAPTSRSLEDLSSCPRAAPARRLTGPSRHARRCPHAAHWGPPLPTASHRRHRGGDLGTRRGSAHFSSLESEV

C[C@H]1CC[C@H]2[C@@H]3CC[C@@H]4C[C@H](OS(=O)(=O)O)CC[C@]4(C)[C@H]3CC[C@]12C
IC50 [1]: 600 nM | IC50 [2]: 500 nM | IC50 [3]: 400 nM | IC50 [4]: 600 nM
